# Reference: publication PMC9834611 (Pharmacology Research & Perspectives, 2023)
# Read-outs that look alike come from different tables or passages of the source.
# Columns and labels:
# [1] = Mouse PBPK model simulations and model parameters
# Description: This model thus aims to elucidate the implications of drug pharmacokinetics and mechanisms of distribution, ultimately providing a modeling base for extrapolation of simulated concentration profiles to clinical settings. The primary drivers of vinca disposition are fraction unbound drug to plasma proteins, intercellular tubulin binding, metabolism, and ABCB1‐mediated transport. With exception to the brain, tissue compartments are defined by a well‐stirred, flow‐limited model in which the concentration of drug leaving the compartment is equal to the unbound drug concentration within the tissue. The blood–brain barrier (BBB) is distinctive as the tight junctions and prolific expression of efflux transporter proteins provide a highly restrictive barrier to many lipophilic molecules. The brain is thus defined by a permeability‐limited model dictated by a modification of Fick's Law of diffusion in which the permeability‐surface area product constitutes the tissue permeation coefficient, the capillary surface area permitting diffusion, and the thickness of the cellular membrane.[32] ABCB1 is highly expressed at the blood–brain barrier as well as in the liver, gut, and kidneys, facilitating drug excretion.[14], [15]
# Physiological parameters for tissue‐specific percent body weight and cardiac output for mouse, canine, and human were sourced from Brown et al.[27] and presented in Table 1. All tissue densities were approximated to be 1 kg/L. Cardiac output for respected species was estimated using a previously derived allometric scaling relationship for unanesthetized mice.[33] […] The rate of change in the amount of drug within generic, non‐eliminating compartments is governed by the following mass balance equation: (1) dAC/dt=VC×dCC/dt=QC×CA−CVT where AC is the amount of drug in the tissue, VC is the volume of the tissue (assuming static volume), CC is the concentration within the tissue, QC is the tissue perfusion rate, CA is the arterial blood drug concentration, and CVT is the venous blood drug concentration.
# Tissue‐specific‐binding capacities, BC , were obtained from studies where tubulin concentrations were determined from tubulin‐binding capacities for colchicine[12] and are reported in Table 2. […] Relative tissue tubulin‐binding capacities were thus assumed to be equivalent for the mouse, dog, and human PBPK model developed herein. […] Partition coefficients, PC , for respective tissues were determined by performing parameter optimization in MATLAB's tool, SimBiology, using a nonlinear least squares regression estimation method from the optimization toolbox. The statistical modeling method fit pooled Mdr1a/b (−/−) tissue data generating one set of partition parameters for all tissues which are reported in Table 1.
# The transfer of drugs at the BBB is unique as the mass transfer out of the vascular space surrounding the brain tissue is hindered by a permeability barrier.
# ABCB1 = ABCB1 transport Vmax optimized to in vivo canine PK data; settings: dog and human models
# Description: The transfer of drugs at the BBB is unique as the mass transfer out of the vascular space surrounding the brain tissue is hindered by a permeability barrier. […] Coupling the ABCB1 transport equations as expressed above with permeability‐limited modeling equations from Choi et al.,[23] the following equations are proposed where Equation ( 4 ) describes the amount of drug within the brain tissue and Equation ( 5 ) describes the amount of drug in the vascular space surrounding the tissue: (4) VCNS*dCCNS,T/dt=PSA×CA−CCNS,V−sfABCB1,CNS×VCNS×VMAXABCB1×CCNS,V/KMABCB1+CCNS,V (5) VBB*dCBB/dt=QCNS*CA−CV−PSA×CA−CV,CNA+sfCNS×VCNS×VMAXABCB1×CCNS,V/KMABCB1+CCNS,V where VCNS is the volume of the brain tissue, VBB is the volume consisting of brain blood, CCNS,T is the concentration of drug in the brain tissue, PSA is the permeability surface area product, sfABCB1,CNS is the relative ABCB1 expression in brain tissue, and CBB is the concentration of drug in the brain blood. VCNA and VBB were set to 97% and 3% of total brain volume, respectively.[37] […] The parameter optimization method was conducted as described previously with nonlinear least squares regression. […] The corresponding Vmax,ABCB1 value was optimized to in vivo canine PK data. […]
# [2] = cited from earlier work; for t1/2: Obs
# human ABCB1 = system: human ABCB1; design: method as in PMID 17142983; settings: dog and human models, cited from earlier work
# [3] = system: plasma proteins, primarily alpha‐1 acid glycoprotein; settings: cited from earlier work
# in vitro = settings: female, CD-1, mouse, liver microsomes
# [4] = VBL PK study in dogs (clinical trial, serum); settings: dog, iv, 2.5 mg/m^2 IV bolus, observed; for AUC(0-t): 2.5 mg/m2, AUCt, dogs, 0 to 24 h; for half-life: 2.5 mg/m2, t1/2, dogs
# [5] = Human PBPK model Monte Carlo simulation and model parameters
# [6] = mouse model, optimized to mouse mdr1a/b (−/−) data
# [7] = concomitant prednisone/omeprazole/diphenhydramine (POD)
# [8] = optimized to mouse mdr1a/b (−/−) data
smiles,measurement,setting,value
"CC[C@]1(O)C[C@@H]2CN(CCc3c([nH]c4ccccc34)[C@@](C(=O)OC)(c3cc4c(cc3OC)N(C)[C@H]3[C@@](O)(C(=O)OC)[C@H](OC(C)=O)[C@]5(CC)C=CCN6CC[C@]43[C@@H]65)C2)C1 [VBL, Vinblastine]",Vmbil (biliary transport Vmax),"[1]; mdra1a/b (−/−) mouse, optimized to fecal data",23.35 nmol/L/h
same,Partition coefficient PCblood,[1]; mouse model,1.0
same,Partition coefficient PCBM,"[1]; mouse model, bone marrow, optimized to mouse mdr1a/b (−/−) data",1.0
same,Partition coefficient PCCNS,[1]; [6],1.21
same,Partition coefficient PCGut,[1]; [6],1.08
same,Partition coefficient PCKidney,[1]; [6],3.73
same,Partition coefficient PCLiver,[1]; [6],2.26
same,VmABCB1,ABCB1; optimized to in vivo canine PK data,64.54 nmol/L/h
same,Vmbil (biliary transport Vmax),ABCB1; set equivalent to ABCB1 value,64.54 nmol/L/h
same,t1/2,[2]; Study 1: IV bolus 0.23 ± 0.08 mg/kg,10.99 h
same,AUCt,"[2]; Study 2: non‐small cell lung cancer, IV bolus 0.083 ± 0.009 mg/kg prior to Cisplatin infusion, n 8, Obs",163 ± 62 h x nM
same,t1/2,[2]; Study 3: IV bolus 0.2 mg/kg,19.7 h
same,AUCt,"[2]; Study 3: metastatic hypernephroma, IV bolus 0.2 mg/kg, n 1, Obs",141 h x nM
same,KmABCB1,human ABCB1; based on ATPase activity,5760 nmol/L
same,Km,"human ABCB1; set equivalent to ABCB1 value, read-out: Kmbil (biliary transport Km)",5.76 µM
same,percentage of drug bound to plasma proteins,[3],48–99%
same,Protein binding (range),[3]; value used in dog model,48–99%
same,Protein binding (range),[3]; value used in human model,48–99%
same,Protein binding (range),[3]; value used in mouse model,48–99%
same,Km at 5 min,in vitro,11.6 µM
same,AUC(0-t),[4]; concomitant prednisolone only,0.186 µM·h
same,AUC(0-t),[4]; [7],0.0477 µM·h
same,half-life,[4]; all patients regardless of concomitant treatment,18.6 h
same,half-life,[4]; concomitant prednisolone only,15.7 h
same,half-life,[4]; [7],5.15 h
same,Partition coefficient PCblood,[5],1.0
same,Partition coefficient PCBM,"[5]; bone marrow, optimized to mouse mdr1a/b (−/−) data",1.0
same,Partition coefficient PCCNS,[5]; [8],1.21
same,Partition coefficient PCGut,[5]; [8],1.08
same,Partition coefficient PCKidney,[5]; [8],3.73
same,Partition coefficient PCLiver,[5]; [8],2.26
